SMILES strings stand for the structures. Entries after “also recorded” stand apart in the source; their conditions may differ.

The first assay addresses lysine gingipain (Kgp) (Porphyromonas gingivalis (strain ATCC 33277 / DSM 20709 / CIP 103683 / JCM 12257 / NCTC 11834 / 2561), UniProt B2RLK2). The experiment in a line: Lysine gingipain (Kgp) fluorogenic inhibition assay. The format is biochemical. The conditions noted are these: 0.1 nM Kgp, 10 uM Z-His-Glu-Lys-MCA, 90 minutes, 37° C., pH 7.5; read-out: Kgp IC50 average. How it is done: The capacities of compounds of the present invention to inhibit the activity of lysine gingipain were measured in a fluorogenic assay similar to those described in Barret Biochemical Journal. 1980, 187(3), 909. The specific assay conditions were as follows. Buffer: pH=7.5, 100 mM Tris-HCl, 75 mM NaCl, 2.5 mM CaCl2, 10 mM cysteine, 1% DMSO after all additions. Protein: 0.1 nM Kgp, isolated from culture of Porphyromonas gingivalis, as described in Pike et al. J. Biol. Chem. 1994, 269(1), 406, and Potempa and Nguyen. Current Protocols in Protein Scienc. 2007, 21.20.1-21.20.27. Fluorogenic substrate: 10 uM Z-His-Glu-Lys-MCA. Time=90 minutes. Temperature=37° C. Each compound: 10 concentrations, starting at either 100 uM or 100 nM, with lower concentrations generated by serial 3-fold dilutions. By testing a range of concentrations for each compound, the concentration required to inhibit the activity of lysine gingipain by 50% (the “IC50”) was determined. Under the described assay conditions, signal-to-noise was excellent, and Z factor was greater than 0.6.
The inhibitory of activity of compounds described herein was tested against Kgp, RgpB, and trypsin.
Turning to `NCCCC[C@H](NC(=O)C1CCCOC1)C(=O)c1nc2ccccc2s1` (single isomer, unassigned) [Compound 19], the IC50 was in the range of 10 to 25 nM.

Regarding `NCCCCC(NC(=O)[C@@H]1CCCN(C(=O)CCc2ccccc2)C1)C(=O)c1nc2ccccc2s1` (single isomer, unassigned) [Compound 15], the IC50 is 1 to 10 nM. With `CC(=O)N1CCOC(C(=O)N[C@@H](CCCCN)C(=O)c2nc3ccccc3s2)C1` (stereo partly drawn) [Compound 29, 4-acetyl-N-[(1S)-5-amino-1-(1,3-benzothiazole-2-carbonyl)pentyl]morpholine-2-carboxamide], the IC50 was in the range of 10 to 25 nM. Same read-out and setting: under `NCCCC[C@H](NC(=O)C1CCOCC1)C(=O)c1nc2ccccc2s1` [Compound 22, N-[(1S)-5-amino-1-(1,3-benzothiazole-2-carbonyl)pentyl]tetrahydropyran-4-carboxamide] stands 10 to 25 nM; under `NCCCC[C@H](NC(=O)C1CCCC1)C(=O)c1ccccn1` [Compound 44, N-[(1S)-5-amino-1-(pyridine-2-carbonyl)pentyl]cyclopentanecarboxamide], greater than 250 nM; under `CC(=O)N1CCC[C@H](C(=O)N[C@@H](CCCCN)C(=O)c2nc3ccccc3s2)C1` [Compound 8, (3S)-1-acetyl-N-[(1S)-5-amino-1-(1,3-benzothiazole-2-carbonyl)pentyl] piperidine-3-carboxamide], 10 to 25 nM. Still for that read-out and setting: under `NCCCC[C@H](NC(=O)C1CCCC1)C(=O)c1nc2ccccc2s1` [Compound 24, N-[(1S)-5-amino-1-(1,3-benzothiazole-2-carbonyl)pentyl]cyclo-pentanecarboxamide] stands 1 to 10 nM. The same measure, in the same setting: the result for `NCCCC[C@H](NC(=O)c1ccccn1)C(=O)c1nc2ccccc2s1` [Compound 12, N-[(1S)-5-amino-1-(1,3-benzothiazole-2-carbonyl)pentyl]pyridine-2-carboxamide] reads 50 to 100 nM; that for `NCCCC[C@H](NC(=O)OCc1ccccc1)C(=O)c1nc2ccccc2s1` [Compound 23, Benzyl-N-[(1S)-5-amino-1-(1,3-benzothiazole-2-carbonyl)pentyl]carbamate], 100 to 250 nM. As for `CC1(C(=O)N[C@@H](CCCCN)C(=O)c2nc3ccccc3s2)CCCCC1` [Compound 33, N-[(1S)-5-amino-1-(1,3-benzothiazole-2-carbonyl)pentyl]-1-methyl-cyclohexanecarboxamide], the IC50 lay in the range of 1 to 10 nM. As to `NCCCC[C@H](NC(=O)C1CCc2ccccc2C1)C(=O)c1nc2ccccc2s1` (stereo partly drawn) [Compound 32, N-[(1S)-5-amino-1-(1,3-benzothiazole-2-carbonyl)pentyl]tetralin-2-carboxamide], the IC50 is 1 to 10 nM. On the same count and under the same terms, under `NCCCC[C@H](NC(=O)c1cncs1)C(=O)c1nc2ccccc2s1` [Compound 38, N-[(1S)-5-amino-1-(1,3-benzothiazole-2-carbonyl)pentyl]thiazole-5-carboxamide] stands 10 to 25 nM; under `NCCCC[C@H](NC(=O)[C@H]1CCCN(C(=O)CCc2ccccc2)C1)C(=O)c1nc2ccccc2s1` [Compound 3, (3S)—N-[(1S)-5-amino-1-(1,3-benzothiazole-2-carbonyl)pentyl]-1-(3-phenylpropanoyl)piperidine-3-carboxamide], 10 to 25 nM; under `CC(=O)N1CCC[C@H](C(=O)N[C@H](CCCCN)C(=O)c2nc3ccccc3s2)C1` [Compound 10, (3S)-1-acetyl-N-[(1R)-5-amino-1-(1,3-benzothiazole-2-carbonyl)pentyl] piperidine-3-carboxamide], 10 to 25 nM. On to `NCCCC[C@H](NC(=O)C1CCCCO1)C(=O)c1nc2ccccc2s1` (single isomer, unassigned) [Compound 25], for which the IC50 lay within 25 to 50 nM. The same measure, in the same setting: under `NCCCC[C@H](NC(=O)c1ccncc1)C(=O)c1nc2ccccc2s1` [Compound 13, N-[(1S)-5-amino-1-(1,3-benzothiazole-2-carbonyl)pentyl]pyridine-4-carboxamide] stands 25 to 50 nM; under `CC(=O)N1CCC[C@@H](C(=O)N[C@@H](CCCCN)C(=O)c2nc3ccccc3s2)C1` [Compound 9, (3R)-1-acetyl-N-[(1S)-5-amino-1-(1,3-benzothiazole-2-carbonyl)pentyl]piperidine-3-carboxamide], 1 to 10 nM. Still for that read-out and setting: the result for `NCCCC[C@H](NC(=O)C1CCCOC1)C(=O)c1nc2ccccc2s1` (single isomer, unassigned) [Compound 18] reads 10 to 25 nM; that for `CC(=O)N1CCC[C@@H](C(=O)N[C@H](CCCCN)C(=O)c2nc3ccccc3s2)C1` [Compound 11, (3R)-1-acetyl-N-[(1R)-5-amino-1-(1,3-benzothiazole-2-carbonyl)pentyl]piperidine-3-carboxamide], 1 to 10 nM.

Regarding `NCCCC[C@H](NC(=O)C1CCCO1)C(=O)c1nc2ccccc2s1` (single isomer, unassigned) [Compound 35], the IC50 was 1 to 10 nM. As to `NCCCC[C@H](NC(=O)C1CCCC1)C(=O)c1nccs1` [Compound 42, N-[(1S)-5-amino-1-(thiazole-2-carbonyl)pentyl]cyclopentanecarboxamide], the concentration for half-maximal inhibition (IC50) fell in the range of 50 to 100 nM.

As to `NCCCC[C@H](NC(=O)[C@@H]1CCCN(C(=O)CCc2ccccc2)C1)C(=O)c1nc2ccccc2s1` [Compound 4, (3R)—N-[(1S)-5-amino-1-(1,3-benzothiazole-2-carbonyl)pentyl]-1-(3-phenylpropanoyl)piperidine-3-carboxamide], the IC50 was in the range of 1 to 10 nM.

On to `NCCCC[C@H](NC(=O)c1cccnc1)C(=O)c1nc2ccccc2s1` [Compound 30, N-[(1S)-5-amino-1-(1,3-benzothiazole-2-carbonyl)pentyl]pyridine-3-carboxamide], for which the IC50 is 25 to 50 nM. In the case of `NCCCC[C@H](NC(=O)c1nccs1)C(=O)c1nc2ccccc2s1` [Compound 39, N-[(1S)-5-amino-1-(1,3-benzothiazole-2-carbonyl)pentyl]thiazole-2-carboxamide], the IC50 is 50 to 100 nM. On to `NCCCC[C@H](NC(=O)C1CCCO1)C(=O)c1nc2ccccc2s1` (single isomer, unassigned) [Compound 34], for which the IC50 was 1 to 10 nM.

Turning to `COC1(C(=O)N[C@@H](CCCCN)C(=O)c2nc3ccccc3s2)CCCCC1` [Compound 41, (S)—N-(6-amino-1-(benzo[d]thiazol-2-yl)-1-oxohexan-2-yl)-1-methoxycyclohexanecarboxamide], the IC50 was in the range of 10 to 25 nM.

`NCCCC[C@H](NC(=O)C1CCCCO1)C(=O)c1nc2ccccc2s1` (single isomer, unassigned) [Compound 26]: the IC50 was 25 to 50 nM.

Regarding `NCCCCC(NC(=O)[C@@H]1CCCN(C(=O)CCc2ccccc2)C1)C(=O)c1nc2ccccc2s1` (single isomer, unassigned) [Compound 14], the IC50 fell in the range of 1 to 10 nM. For `NCCCC[C@H](NC(=O)C1CCCc2ccccc21)C(=O)c1nc2ccccc2s1` (stereo partly drawn) [Compound 31, N-[(1S)-5-amino-1-(1,3-benzothiazole-2-carbonyl)pentyl]tetralin-1-carboxamide], the IC50 is 10 to 25 nM. On the same count and under the same terms, the result for `NCCCC[C@H](NC(=O)c1ccccc1C(F)(F)F)C(=O)c1nc2ccccc2s1` [Compound 7, N-[(1S)-5-amino-1-(1,3-benzothiazole-2-carbonyl)pentyl]-2-(trifluoromethyl)benzamide] reads 25 to 50 nM; that for `NCCCC[C@H](NC(=O)c1cccc(=O)[nH]1)C(=O)c1nc2ccccc2s1` [Compound 40, N-[(1S)-5-amino-1-(1,3-benzothiazole-2-carbonyl)pentyl]-6-oxo-1H-pyridine-2-carboxamide], 25 to 50 nM.

The same assay, now with this note: read-out: Kgp IC50.
On to `NCCCC[C@H](NC(=O)[C@H]1CCCN(C(=O)CCc2ccccc2)C1)C(=O)c1nc2ccccc2s1` [Compound 3, (3S)—N-[(1S)-5-amino-1-(1,3-benzothiazole-2-carbonyl)pentyl]-1-(3-phenylpropanoyl)piperidine-3-carboxamide], for which the IC50 lay in the range of 10 to 25 nM.

Take `NCCCC[C@H](NC(=O)[C@@H]1CCCN(C(=O)CCc2ccccc2)C1)C(=O)c1nc2ccccc2s1` [Compound 4, (3R)—N-[(1S)-5-amino-1-(1,3-benzothiazole-2-carbonyl)pentyl]-1-(3-phenylpropanoyl)piperidine-3-carboxamide]: the IC50 fell in the range of 1 to 10 nM.

For another assay, the system named is differentiated SHSY-5Y cells. The experiment in a line: Gingipain-induced death of differentiated SH-SY5Y cells. The format is cell-based. The following applies: 100 nM Kgp and/or RgpB for 24 hours. Here is the method: SH-SY5Y neuroblastoma cells were cultured and differentiated in the presence of 5 uM retinoic acid based on established methods [Saberi S., et al. Cell Mol Neurobiol 2013. 33: 747-751]. Differentiation into neuronal cells was verified by observation of neurite outgrowth. The differentiated cells were exposed to 100 nM Kgp and/or RgpB for 24 hours, in the presence or absence of Kgp inhibitors. Results were recorded using a digital microscope camera (FIG. 1C, FIG. 2C). Gingipains are toxic to cells while COR compounds prevent the cytotoxicity.
Regarding `NCCCC[C@H](NC(=O)[C@H]1CCCN(C(=O)CCc2ccccc2)C1)C(=O)c1nc2ccccc2s1` [Compound 3, (3S)—N-[(1S)-5-amino-1-(1,3-benzothiazole-2-carbonyl)pentyl]-1-(3-phenylpropanoyl)piperidine-3-carboxamide], the “prevention of gingipain-induced death of differentiated SHSY-5Y cells” value is recorded as “does not”. Same read-out and setting: under `NCCCC[C@H](NC(=O)[C@@H]1CCCN(C(=O)CCc2ccccc2)C1)C(=O)c1nc2ccccc2s1` [Compound 4, (3R)—N-[(1S)-5-amino-1-(1,3-benzothiazole-2-carbonyl)pentyl]-1-(3-phenylpropanoyl)piperidine-3-carboxamide] stands “prevents”; under `NCCCC[C@H](NC(=O)c1ccccc1)C(=O)c1nc2ccccc2s1` [Compound 1, N-[(1S)-5-amino-1-(1,3-benzothiazole-2-carbonyl)pentyl]benzamide], “prevents; also recorded: effective at preventing cell death”.

Staying with this assay, now noted: 100 nM Kgp and/or RgpB for 24 hours; listed as 2-(N—[N-(3-phenylpropanoyl)-(R)-nipecotinyl]-(R)-lysinyl)-benzothiazole.
Regarding `NCCCC[C@H](NC(=O)[C@@H]1CCCN(C(=O)CCc2ccccc2)C1)C(=O)c1nc2ccccc2s1` [Compound 4, (3R)—N-[(1S)-5-amino-1-(1,3-benzothiazole-2-carbonyl)pentyl]-1-(3-phenylpropanoyl)piperidine-3-carboxamide], the “prevention of gingipain-induced death of differentiated SHSY-5Y cells” value is given as “effective at preventing cell death”.

The values are drawn from patent US9988375B2, “Inhibitors of lysine gingipain” (priority 2014, dated 2018).
